From patent US20240368122A1, “JAK2 INHIBITORS AND METHODS OF USE THEREOF” (RELAY THERAPEUTICS, INC., priority 2021, published 2024) come the findings set out here.

Test [1] concerns TF1 JAK2 V617F STAT3 reporter. Kind of test: Cellular TF1 STAT3 assay (luciferase reporter), JAK2 V617F. The format is cell-based. The conditions noted are these: Homo sapiens, TF-1, TF1 cells, JAK2 V617F, read-out: Cell PD-TF1 JAK2 V617F STAT3 (IC50). The essentials:
(§1)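 Measured in TF1 cells with mutant JAK2 V617F and STAT-responsive luciferase: 18-20 h compound exposure at 37 °C, then ONE-glo luminescence.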
A general note: In a reporter assay the amount or activity of a reporter protein is the signal.

In test [2] the test system is TF1 JAK2 V617F STAT5 reporter. As to the kind of experiment: Cellular TF1 STAT5 assay (luciferase reporter), JAK2 V617F. In kind it is cell-based. To be noted: Homo sapiens, TF-1, TF1 cells, JAK2 V617F, read-out: Cell PD TF1 V617F STAT5 (IC50). The essentials: as §1
Test [3] concerns the target T1, JAK2 JH2 WT (V536-D812) [W659A, W777A, F794H solubilizing mutations] (Homo sapiens, UniProt O60674, F794H/W659A/W777A).
T1 construct: **JAK2 JH2 WT (V536-D812) [W659A, W777A, F794H solubilizing mutations]; C-thrombin-avi-His6; thrombin cleavage site (C); His6 (C); purchased Biortus
Kind of test: Surface Plasmon Resonance (SPR) binding assay, JAK2 JH2 domain. The essentials: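 Kinetics came from 1:1 fits of single-cycle runs at 20 °C: four 3-fold dilutions from 5 uM for JH1 or 500 nM for JH2, 60 s association, and 300 s or 1200 s dissociation respectively. Protein was freshly captured per compound in the presence of 10 uM stabilizer compound, with running buffer of pH 7.5 HEPES/NaCl/glycerol/DTT plus 2% DMSO.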

T1 sequence (O60674 536-812 W659A/W777A/F794H): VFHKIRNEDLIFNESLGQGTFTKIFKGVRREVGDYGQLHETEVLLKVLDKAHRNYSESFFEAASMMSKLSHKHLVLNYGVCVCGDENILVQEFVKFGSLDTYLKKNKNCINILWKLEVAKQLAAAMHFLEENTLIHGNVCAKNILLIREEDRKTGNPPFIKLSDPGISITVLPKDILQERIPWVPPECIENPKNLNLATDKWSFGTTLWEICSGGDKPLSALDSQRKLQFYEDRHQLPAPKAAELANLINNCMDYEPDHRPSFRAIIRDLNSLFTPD

For orientation: IC50 means the concentration needed to halve the response being measured. As a reminder, the Kd is the free concentration of one partner at which half of the binding sites on the other are occupied at equilibrium, for simple one-to-one binding. As to `CNC(=O)c1nnc(NC(=O)C2CC2)cc1Nc1cccc(-c2ccc(C(=O)N3CCc4cccnc4CC3)nc2)c1OC` [Compound 196], the 50% inhibitory concentration (IC50) in test [1] and in test [2] was 500 to 5000 nM in each case. In test [3], this compound had a Kd of 0.01 to 10 nM.
For `CNC(=O)c1nnc(NC(=O)C2CC2)cc1Nc1cccc(-c2ccc(C(=O)N(C)Cc3c(C)nn(C)c3Cl)nc2)c1OC` [Compound 197], the IC50 in test [1] and in test [2] was 50 to 500 nM in each case. In test [3], this compound came in with a Kd of 0.01 to 10 nM.
Consider `CNC(=O)c1nnc(NC(=O)C2CC2)cc1Nc1cccc(-c2ccc(C(=O)N(C)Cc3cn(C)nc3C(C)C)nc2)c1OC` [Compound 198], for which the IC50 in test [1] and in test [2] was 50 to 500 nM throughout. In test [3], this compound yielded a Kd of 0.01 to 10 nM.
`CNC(=O)c1nnc(NC(=O)C2CC2)cc1Nc1cccc(-c2ccc(C(=O)N(C)Cc3csc(C(C)C)n3)nc2)c1OC` [Compound 199]: the half-maximal inhibitory concentration (IC50) in test [1] and in test [2] was 50 to 500 nM throughout. In test [3], the dissociation constant (Kd) was in the range of 0.01 to 10 nM.
For the compound `CNC(=O)c1nnc(NC(=O)C2CC2)cc1Nc1cccc(-c2cnn(C3CN(Cc4cccc(C(F)(F)F)n4)C3)c2)c1OC` [Compound 200], the IC50 in test [1] and in test [2] was 50 to 500 nM each time. The Kd in test [3] was in the range of 0.01 to 10 nM.
In the case of `CNC(=O)c1nnc(NC(=O)C2CC2)cc1Nc1cccc(-c2cnn(C3CN(Cc4cccc(Br)n4)C3)c2)c1OC` [Compound 201], the half-inhibitory concentration (IC50) in test [1] and in test [2] was 50 to 500 nM throughout. Moreover, the Kd in test [3] lay within 0.01 to 10 nM.
Regarding `CNC(=O)c1nnc(NC(=O)C2CC2)cc1Nc1cccc(-c2cc(C3CN(Cc4cccc(C#N)n4)C3)n(C)n2)c1OC` [Compound 202], the IC50 in test [1] and in test [2] was 5000 to 100000 nM in each case. Moreover, the Kd in test [3] was in the range of 50 to 500 nM.
For `CNC(=O)c1nnc(NC(=O)C2CC2)cc1Nc1cccc(-c2cc(C3CN(Cc4ccccn4)C3)n(C)n2)c1OC` [Compound 203], the IC50 in test [1] and in test [2] was 5000 to 100000 nM each time. In test [3], the dissociation constant (Kd) was in the range of 50 to 500 nM.
Take `COc1c(Nc2cc(NC(=O)C3CC3)nn3cc(C)nc23)cccc1-c1cnn(C2CN(Cc3ccccn3)C2)c1` [Compound 204]: the concentration for half-maximal inhibition (IC50) in test [1] and in test [2] was 500 to 5000 nM throughout. Besides, the Kd in test [3] lay within 0.01 to 10 nM.
Take `CNC(=O)c1nnc(NC(=O)C2CC2)cc1Nc1ccc(Cl)c(-c2ccc(C(=O)N(C)Cc3cc(C#N)n(C)n3)nc2)c1OC` [Compound 205]: the half-inhibitory concentration (IC50) in test [1] and in test [2] was 50 to 500 nM each time. Further, in test [3], the dissociation constant Kd lay within 0.01 to 10 nM.
For the compound `CNC(=O)c1nnc(NC(=O)C2CC2)cc1Nc1cccc(-c2ccc(C(=O)N(C)Cc3scnc3C)nc2)c1OC` [Compound 210], the values for the 50% inhibitory concentration (IC50) in test [1] and in test [2] were 5000 to 100000 nM and 500 to 5000 nM, respectively. In test [3], the Kd was in the range of 0.01 to 10 nM.
On to `CNC(=O)c1nnc(NC(=O)C2CC2)cc1Nc1cccc(-c2ccc(C(=O)N(C)Cc3cnc(C)s3)nc2)c1OC` [Compound 211], for which the results for the 50% inhibitory concentration (IC50) in test [1] and in test [2] were 5000 to 100000 nM and 500 to 5000 nM, respectively. For the same compound, the dissociation constant Kd in test [3] was in the range of 0.01 to 10 nM.
The like results for `CNC(=O)c1nnc(NC(=O)C2CC2)cc1Nc1cccc(-c2cnn(C3CN(Cc4cccnc4C#N)C3)c2)c1OC` [Compound 212] were, in that order, 50 to 500 nM, 50 to 500 nM and 0.01 to 10 nM.
Turning to `CNC(=O)c1nnc(NC(=O)C2CC2)cc1Nc1cccc(-c2cnn(C3CN(Cc4cn(C)nc4C)C3)c2)c1OC` [Compound 213], the IC50 in test [1] and in test [2] was 500 to 5000 nM throughout. The same compound displayed a Kd in test [3] of 0.01 to 10 nM.
Turning to `CNC(=O)c1nnc(NC(=O)C2CC2)cc1Nc1cccc(-c2cnn(C3CN(Cc4cccc(COC)n4)C3)c2)c1OC` [Compound 216], the IC50 in test [1] and in test [2] was 50 to 500 nM in each case. Also, the equilibrium dissociation constant (Kd) in test [3] fell in the range of 0.01 to 10 nM.
In the case of `CNC(=O)c1nnc(NC(=O)C2CC2)cc1Nc1ccc(Cl)c(-c2ccc(C(=O)N(C)Cc3cc(C#N)ccn3)cc2)c1OC` [Compound 217], the IC50 in test [1] and in test [2] was 500 to 5000 nM throughout. Moreover, the Kd in test [3] lay within 0.01 to 10 nM.
On to `CNC(=O)c1nnc(NC(=O)C2CC2)cc1Nc1nccc(-c2cnn(C3CN(Cc4ccccn4)C3)c2)c1OC` [Compound 218], for which the figures for the half-inhibitory concentration (IC50) in test [1] and in test [2] were 50 to 500 nM and 500 to 5000 nM, respectively. The dissociation constant Kd in test [3] was 0.01 to 10 nM.
The like results for `COc1c(Nc2cc(NC(=O)C3CC3)nn3cc(C)nc23)cccc1-c1ccc(C(=O)N(C)Cc2cc(C#N)ccn2)nc1` [Compound 219] were, in that order, 500 to 5000 nM, 500 to 5000 nM and 0.01 to 10 nM.
For `CNC(=O)c1nnc(NC(=O)C2CC2)cc1Nc1cccc(-c2ccc(C(=O)N(C)Cc3cn(C)nc3C)cc2)c1OC` [Compound 221], in that order: 50 to 500 nM, 50 to 500 nM and 0.01 to 10 nM.
For the compound `CNC(=O)c1nnc(NC(=O)C2CC2)cc1Nc1cccc(-c2ccc(C(=O)N(C)Cc3cn(C)nc3C(F)F)nc2)c1OC` [Compound 222], the concentration for half-maximal inhibition (IC50) in test [1] and in test [2] was 50 to 500 nM throughout. Besides, in test [3], the Kd was 0.01 to 10 nM.
On to `CNC(=O)c1nnc(NC(=O)C2CC2)cc1Nc1ccc(Cl)c(-c2ccc(C(=O)N(C)Cc3ccn(C)n3)nc2)c1OC` [Compound 223], for which the half-inhibitory concentration (IC50) in test [1] lay in the range of 500 to 5000 nM; in test [2] it was 50 to 500 nM. Besides, the dissociation constant (Kd) in test [3] lay in the range of 0.01 to 10 nM.
Take `CNC(=O)c1nnc(NC(=O)C2CC2)cc1Nc1cccc(-c2ncn(C3CN(Cc4ccccn4)C3)n2)c1OC` [Compound 224]: the concentration for half-maximal inhibition (IC50) in test [1] and in test [2] was 5000 to 100000 nM each time. Further, the Kd in test [3] was 0.01 to 10 nM.
`CNC(=O)c1nnc(NC(=O)C2CC2)cc1Nc1cccc(-c2cnn(C3CN(Cc4cccc(CO)n4)C3)c2)c1OC` [Compound 228]: the IC50 in test [1] and in test [2] was 50 to 500 nM each time. The same compound returned an equilibrium dissociation constant (Kd) in test [3] of 0.01 to 10 nM.
In the case of `CNC(=O)c1nnc(NC(=O)C2CC2)cc1Nc1cccc(-c2cnn(C3CN(C(=O)c4ccccn4)C3)c2)c1OC` [Compound 229], the half-maximal inhibitory concentration (IC50) in test [1] and in test [2] was 500 to 5000 nM in each case. In addition, in test [3], the Kd is 0.01 to 10 nM.
`CNC(=O)c1nnc(NC(=O)C2CC2)cc1Nc1ccc(C)c(-c2cnc(C(=O)N(C)Cc3cn(C)nc3C)c(F)c2)c1OC` [Compound 230]: the IC50 in test [1] and in test [2] was 50 to 500 nM in each case. In test [3], this compound showed a dissociation constant (Kd) of 0.01 to 10 nM.
As to `COc1c(Nc2cc(NC(=O)C3CC3)nn3cc(C)nc23)cccc1-c1ccc(C(=O)N(C)Cc2cn(C)nc2C)nc1` [Compound 231], the IC50 in test [1] and in test [2] was 500 to 5000 nM in each case. In test [3], this compound showed a Kd of 0.01 to 10 nM.
Take `CNC(=O)c1nnc(NC(=O)C2CC2)cc1Nc1cccc(-c2cnn(C3CN(Cc4cccc(C#N)n4)C3)c2)c1` [Compound 232]: the half-inhibitory concentration (IC50) in test [1] and in test [2] was 5000 to 100000 nM in each case. The compound further displayed a dissociation constant Kd in test [3] of 10 to 50 nM.
With `CNC(=O)c1nnc(NC(=O)C2CC2)cc1Nc1nccc(-c2ccc(C(=O)N(C)Cc3cc(C#N)ccn3)nc2)c1OC` [Compound 240], the figures for the IC50 in test [1] and in test [2] were 50 to 500 nM and 500 to 5000 nM, respectively. Moreover, the Kd in test [3] lay within 0.01 to 10 nM.
The like results for `CNC(=O)c1nnc(NC(=O)C2CC2)cc1Nc1cccc(-c2cnn(C3CN(Cc4cccc(C#CC5CC5)n4)C3)c2)c1OC` [Compound 241] were, in that order, 50 to 500 nM, 50 to 500 nM and 0.01 to 10 nM.
For `CNC(=O)c1nnc(NC(=O)C2CC2)cc1Nc1cccc(-c2cnn(C3CN(Cc4cccc(N)n4)C3)c2)c1OC` [Compound 242], in that order: 50 to 500 nM, 50 to 500 nM and 0.01 to 10 nM.
For `CNC(=O)c1nnc(NC(=O)C2CC2)cc1Nc1cccc(-c2cnn(C3CN(Cc4cccc(OC(F)F)n4)C3)c2)c1OC` [Compound 243], in that order: 50 to 500 nM, 50 to 500 nM and 0.01 to 10 nM.
As for `CNC(=O)c1nnc(NC(=O)C2CC2)cc1Nc1cccc(-c2ccc(C(=O)N(C)Cc3ncc(COC)s3)nc2)c1OC` [Compound 244], the IC50 in test [1] and in test [2] was 50 to 500 nM in each case. The compound also gave a Kd in test [3] of 0.01 to 10 nM.
Take `CNC(=O)c1nnc(NC(=O)C2CC2)cc1Nc1cccc(-c2cnn(C3CN(Cc4cccc5ncnn45)C3)c2)c1OC` [Compound 248]: the half-inhibitory concentration (IC50) in test [1] and in test [2] was 50 to 500 nM each time. Moreover, the Kd in test [3] was in the range of 0.01 to 10 nM.
As to `CNC(=O)c1nnc(NC(=O)C2CC2)cc1Nc1cccc(-c2cnn(C3CN(Cc4ccc(C#N)cn4)C3)c2)c1OC` [Compound 249], the half-maximal inhibitory concentration (IC50) in test [1] and in test [2] was 5000 to 100000 nM each time. In test [3], this compound displayed an equilibrium dissociation constant (Kd) of 10 to 50 nM.
For `CNC(=O)c1nnc(NC(=O)C2CC2)cc1Nc1cccc(-c2cnn(C3CN(Cc4cc(Cl)ccn4)C3)c2)c1OC` [Compound 250], the IC50 in test [1] and in test [2] was 50 to 500 nM in each case. Also, the Kd in test [3] lay in the range of 0.01 to 10 nM.
As for `CNC(=O)c1nnc(NC(=O)C2CC2)cc1Nc1cccc(-c2cnn(C3CN(Cc4cccn(C(F)F)c4=O)C3)c2)c1OC` [Compound 251], the IC50 in test [1] and in test [2] was 50 to 500 nM throughout. This compound also came in with a Kd in test [3] of 0.01 to 10 nM.
As for `CNC(=O)c1nnc(NC(=O)C2CC2)cc1Nc1cccc(-c2ccc(C(=O)N(C)Cc3cn(C)nc3C3CC3)nc2)c1OC` [Compound 252], the IC50 in test [1] and in test [2] was 50 to 500 nM in each case. In test [3], this compound had a Kd of 0.01 to 10 nM.
